How the values were obtained:
Type in all cases: cell-based
IRAK4 [1] = target: T1, IRAK4 (Homo sapiens, UniProt Q9NWZ3); test: IRAK4 Degradation Assay (Karpas299, HTRF/TR-FRET); conditions: Karpas-299 cells; for Dmax: maximum percentage of degradation
T1 construct: endogenous in cells; host or cells: Karpas299
T1 sequence (Q9NWZ3 1-460): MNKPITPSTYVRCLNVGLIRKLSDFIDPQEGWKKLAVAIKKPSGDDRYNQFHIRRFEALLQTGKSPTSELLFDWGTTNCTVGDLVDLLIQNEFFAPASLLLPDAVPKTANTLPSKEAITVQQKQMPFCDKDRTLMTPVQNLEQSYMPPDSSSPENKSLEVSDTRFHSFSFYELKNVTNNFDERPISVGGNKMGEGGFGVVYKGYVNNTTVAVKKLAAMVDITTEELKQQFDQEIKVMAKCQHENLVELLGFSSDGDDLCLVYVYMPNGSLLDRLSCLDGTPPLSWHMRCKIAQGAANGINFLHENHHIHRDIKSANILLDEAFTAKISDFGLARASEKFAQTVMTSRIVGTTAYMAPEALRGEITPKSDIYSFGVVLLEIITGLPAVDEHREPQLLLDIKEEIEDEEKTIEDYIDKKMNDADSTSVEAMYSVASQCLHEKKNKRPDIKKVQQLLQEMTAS
Method in brief: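 Karpas299 cells at 0.2 million per well were exposed to serially diluted compounds for 24 h or 5 h, then lysed. IRAK4 remaining in lysates was quantified by HTRF (665/620 nm) after overnight antibody incubation at room temperature. Percent degradation was fitted to a four-parameter curve to give IC50 (DC50).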

IRAK4 [2] = target: T1, IRAK4; test: IRAK4 Degradation Assay with Human Serum (Karpas299, HTRF/TR-FRET); conditions: Karpas-299 in human serum, 24 hrs treatment; for DC50: read-out: IRAK4 degradtion with human serum assay DC50; for Dmax: read-out: IRAK4 degradtion with human serum assay Dmax (%)
Method in brief: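 Karpas299 cells in human AB serum (0.2 million/well) treated with serial compound dilutions for 24 h. After lysis, IRAK4 quantified by HTRF (overnight antibody incubation at room temperature, 665/620 nm read). Degradation percentage fitted to four-parameter curve to give DC50.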

[3] = test system: TNF-α production in THP-1 cells; test: TNF-α Production Assay in THP-1 Cells (LPS stimulated); conditions: Homo sapiens, THP-1, 24 h; for Emax: maximum inhibition, read-out: TNF-α (THP-1) 24 h IMax
Procedure: THP-1 cells maintained in RPMI 1640 medium (Thermo Scientific) supplemented with 10% FBS (Thermo Scientific), 100 units/mL penicillin and 0.1 mg/mL streptomycin (Thermo Scientific) were seeded into 96-well plates at the density of 0.2 million cells per well and then treated with compounds for 24 h. Lipopolysaccharide was subsequently added at the final concentration of 1 μg/mL for 24 h. Culture supernatant was collected for measurement of TNF-α concentration by a TR-FRET-based method (Degorce, François, et al. Current chemical genomics. 2009, 3: 22) as described by the manufacturer manual (Cisbio). FRET signals were measured using a PHERAstar FSX reader (BMG Labtech).

[4] = 24 h treatment, read-out: IRAK4 in Karpas-299 (24 h) Dmax (%)
[5] = 24 h treatment, read-out: IRAK4 in Karpas-299 (24 h) DC50
[6] = 5 h treatment, read-out: IRAK4 in Karpas-299 (5 h) Dmax (%)
[7] = 5 h treatment, read-out: IRAK4 in Karpas-299 (5 h) DC50

Which Dmax (IRAK4 [1]; [4]) does the source give for `C[C@H]1CN(C(=O)C2CN(c3cc(F)c([C@H]4CCC(=O)NC4=O)c(F)c3)C2)CCN1[C@H]1CC[C@H](n2cc3cc(NC(=O)c4ccc5cc(C#N)cnn45)c(C(C)(C)O)cc3n2)CC1` [Example 304, 3-cyano-N-(2-((1S,4r)-4-((S)-4-(1-(4-((R)-2,6-dioxopiperidin-3-yl)-3,5-difluorophenyl)azetidine-3-carbonyl)-2-methylpiperazin-1-yl)cyclohexyl)-6-(2-hydroxypropan-2-yl)-2H-indazol-5-yl)pyrrolo[1,2-b]pyridazine-7-carboxamide] here?
Its Dmax is 96%.

What about the DC50 (IRAK4 [1]; [5]) of the same compound?
Its DC50 is 0.0005 µM.

And the DC50 (IRAK4 [2])?
Its DC50 is 0.065 µM.

And the Dmax (IRAK4 [2])?
The Dmax was 97%.

And the IC50 [3]?
Its IC50 is 0.031 µM.

What about the Emax [3] of the same compound?
The Emax was 88%.

Which results are given for `COC[C@@H]1CN([C@H]2CC[C@H](n3cc4cc(NC(=O)c5ccc6cc(C#N)cnn56)c(C(C)(C)O)cc4n3)CC2)CCN1C1CCN(c2cc(F)c([C@H]3CCC(=O)NC3=O)c(F)c2)CC1` [Example 319]?
Dmax (IRAK4 [1]; [6]): 95%; DC50 (IRAK4 [1]; [7]): 0.0012 µM; Dmax (IRAK4 [1]; [4]): 98%; DC50 (IRAK4 [1]; [5]): 0.002 µM; DC50 (IRAK4 [2]): 0.0067 µM; Dmax (IRAK4 [2]): 98%; IC50 [3]: 0.039 µM; Emax [3]: 90%

Which results are given for `COC[C@H]1CN([C@H]2CC[C@H](n3cc4cc(NC(=O)c5ccc6cc(C#N)cnn56)c(C(C)(C)O)cc4n3)CC2)CCN1C(=O)C1CN(c2cc(F)c([C@H]3CCC(=O)NC3=O)c(F)c2)C1` [Example 185, 3-cyano-N-(2-((1R,4r)-4-((R)-4-(1-(4-((R)-2,6-dioxopiperidin-3-yl)-3,5-difluorophenyl)azetidine-3-carbonyl)-3-(methoxymethyl)piperazin-1-yl)cyclohexyl)-6-(2-hydroxypropan-2-yl)-2H-indazol-5-yl)pyrrolo[1,2-b]pyridazine-7-carboxamide]?
Dmax (IRAK4 [1]; [4]): 96%; DC50 (IRAK4 [1]; [5]): 0.0007 µM; DC50 (IRAK4 [2]): 0.014 µM; Dmax (IRAK4 [2]): 100%; IC50 [3]: 0.012 µM; Emax [3]: 91%

For `COC[C@H]1CN([C@H]2CC[C@H](n3cc4cc(NC(=O)c5ccc6cc(C#N)cnn56)c(C(C)(C)O)cc4n3)CC2)CCN1CC1CN(c2cc(F)c([C@H]3CCC(=O)NC3=O)c(F)c2)C1` [Example 367, 3-cyano-N-(2-((1R,4r)-4-((R)-4-((1-(4-((R)-2,6-dioxopiperidin-3-yl)-3,5-difluorophenyl)azetidin-3-yl)methyl)-3-(methoxymethyl)piperazin-1-yl)cyclohexyl)-6-(2-hydroxypropan-2-yl)-2H-indazol-5-yl)pyrrolo[1,2-b]pyridazine-7-carboxamide], which Dmax (IRAK4 [1]; [6]) is on record?
Its Dmax is 97%.

What about the DC50 (IRAK4 [1]; [7]) of the same compound?
The DC50 was 0.0031 µM.

And the Dmax (IRAK4 [1]; [4])?
The Dmax was 99%.

What about the DC50 (IRAK4 [1]; [5]) of the same compound?
Its DC50 is 0.0007 µM.

And the DC50 (IRAK4 [2])?
Its DC50 is 0.012 µM.

And the Dmax (IRAK4 [2])?
The Dmax was 96%.

And the IC50 [3]?
Its IC50 is 0.011 µM.

And the Emax [3]?
The Emax was 96%.

With `C[C@@H]1CN(C2CCN(c3cc(F)c([C@H]4CCC(=O)NC4=O)c(F)c3)CC2)CCN1[C@H]1CC[C@H](n2cc3cc(NC(=O)c4ccc5cc(C#N)cnn45)c(C(C)(C)O)cc3n2)CC1` [Example 301, 3-cyano-N-(2-((1R,4r)-4-((R)-4-(1-(4-((R)-2,6-dioxopiperidin-3-yl)-3,5-difluorophenyl)piperidin-4-yl)-2-methylpiperazin-1-yl)cyclohexyl)-6-(2-hydroxypropan-2-yl)-2H-indazol-5-yl)pyrrolo[1,2-b]pyridazine-7-carboxamide] as the compound, how does the Dmax (IRAK4 [1]; [4]) read?
The Dmax was 100%.

And the DC50 (IRAK4 [1]; [5])?
The DC50 was 0.0007 µM.

What about the DC50 (IRAK4 [2]) of the same compound?
The DC50 was 0.0032 µM.

And the Dmax (IRAK4 [2])?
Its Dmax is 102%.

What about the IC50 [3] of the same compound?
The IC50 was 0.042 µM.

And the Emax [3]?
The Emax was 96%.

With `CC(C)(O)c1cc2nn([C@H]3CC[C@H](N4CCN(C(=O)C5CN(c6cc(F)c(N7CCC(=O)NC7=O)c(F)c6)C5)CC4)CC3)cc2cc1NC(=O)c1cccc(C(F)(F)F)n1` [Example 114, N-(2-((1r,4r)-4-(4-(1-(4-(2,4-dioxotetrahydropyrimidin-1(2H)-yl)-3,5-difluorophenyl)azetidine-3-carbonyl)piperazin-1-yl)cyclohexyl)-6-(2-hydroxypropan-2-yl)-2H-indazol-5-yl)-6-(trifluoromethyl)picolinamide] as the compound, how does the Dmax (IRAK4 [1]; [4]) read?
Its Dmax is 96%.

What about the DC50 (IRAK4 [1]; [5]) of the same compound?
Its DC50 is 0.0013 µM.

And the IC50 [3]?
Its IC50 is 0.053 µM.

And the Emax [3]?
Its Emax is 78%.

Which results are given for `C[C@@H]1CN(C2CN(c3cc(F)c([C@H]4CCC(=O)NC4=O)c(F)c3)C2)CCN1[C@H]1CC[C@H](n2cc3cc(NC(=O)c4ccc5cc(C#N)cnn45)c(C(C)(C)O)cc3n2)CC1` [Example 302, 3-cyano-N-(2-((1R,4r)-4-((R)-4-(1-(4-((R)-2,6-dioxopiperidin-3-yl)-3,5-difluorophenyl)azetidin-3-yl)-2-methylpiperazin-1-yl)cyclohexyl)-6-(2-hydroxypropan-2-yl)-2H-indazol-5-yl)pyrrolo[1,2-b]pyridazine-7-carboxamide]?
Dmax (IRAK4 [1]; [4]): 98%; DC50 (IRAK4 [1]; [5]): 0.0008 µM; DC50 (IRAK4 [2]): 0.0088 µM; Dmax (IRAK4 [2]): 96%; IC50 [3]: 0.038 µM; Emax [3]: 84%

Which Dmax (IRAK4 [1]; [6]) does the source give for `CC(C)(O)c1cc2nn([C@H]3CC[C@H](N4CCN(C(=O)[C@@H]5CCN(c6cc(F)c([C@H]7CCC(=O)NC7=O)c(F)c6)C5)CC4)CC3)cc2cc1NC(=O)c1ccc2cc(C#N)cnn12` [Example 181, 3-cyano-N-(2-((1R,4r)-4-(4-((R)-1-(4-((R)-2,6-dioxopiperidin-3-yl)-3,5-difluorophenyl)pyrrolidine-3-carbonyl)piperazin-1-yl)cyclohexyl)-6-(2-hydroxypropan-2-yl)-2H-indazol-5-yl)pyrrolo[1,2-b]pyridazine-7-carboxamide] here?
The Dmax was 97%.

And the DC50 (IRAK4 [1]; [7])?
The DC50 was 0.002 µM.

What about the Dmax (IRAK4 [1]; [4]) of the same compound?
Its Dmax is 97%.

What about the DC50 (IRAK4 [1]; [5]) of the same compound?
The DC50 was 0.0004 µM.

And the DC50 (IRAK4 [2])?
Its DC50 is 0.011 µM.

And the Dmax (IRAK4 [2])?
Its Dmax is 101%.

What about the IC50 [3] of the same compound?
Its IC50 is 0.03 µM.

And the Emax [3]?
Its Emax is 69%.

How did the Dmax (IRAK4 [1]; [6]) turn out when `COc1cc2nn([C@H]3CC[C@H](CN4CCN(C(=O)[C@@H]5CCN(c6ccc(N7CCC(=O)NC7=O)cc6)C5)CC4)CC3)cc2cc1NC(=O)c1cccn(C2CC2)c1=O` [Example 33, 1-cyclopropyl-N-(2-((1R,4r)-4-((4-((R)-1-(4-(2,4-dioxotetrahydropyrimidin-1(2H)-yl)phenyl)pyrrolidine-3-carbonyl)piperazin-1-yl)methyl)cyclohexyl)-6-methoxy-2H-indazol-5-yl)-2-oxo-1,2-dihydropyridine-3-carboxamide] was run?
The Dmax was 81%.

What about the DC50 (IRAK4 [1]; [7]) of the same compound?
Its DC50 is 0.033 µM.

And the Dmax (IRAK4 [1]; [4])?
Its Dmax is 99%.

And the DC50 (IRAK4 [1]; [5])?
The DC50 was 0.0031 µM.

What about the IC50 [3] of the same compound?
The IC50 was 0.101 µM.

What about the Emax [3] of the same compound?
Its Emax is 53%.

Which Dmax (IRAK4 [1]; [6]) does the source give for `COc1cc2nn([C@H]3CC[C@H](N4CCN(C(=O)C5CN(c6cc(F)c(N7CCC(=O)NC7=O)c(F)c6)C5)CC4)CC3)cc2cc1NC(=O)c1cccc(C(F)(F)F)n1` [Example 176, N-(2-((1r,4r)-4-(4-(1-(4-(2,4-dioxotetrahydropyrimidin-1(2H)-yl)-3,5-difluorophenyl)azetidine-3-carbonyl)piperazin-1-yl)cyclohexyl)-6-methoxy-2H-indazol-5-yl)-6-(trifluoromethyl)picolinamide] here?
The Dmax was 96%.

And the DC50 (IRAK4 [1]; [7])?
Its DC50 is 0.012 µM.

And the Dmax (IRAK4 [1]; [4])?
The Dmax was 97%.

What about the DC50 (IRAK4 [1]; [5]) of the same compound?
Its DC50 is 0.0016 µM.

What about the IC50 [3] of the same compound?
The IC50 was 0.12 µM.

And the Emax [3]?
The Emax was 78%.

`[2H]C([2H])([2H])Oc1cc2nn([C@H]3CC[C@H](N4CCN(C(=O)C5CN(c6cc(F)c(N7CCC(=O)NC7=O)c(F)c6)C5)CC4)CC3)cc2cc1NC(=O)c1cccc(C(F)(F)F)n1` [Example 173, N-(2-((1r,4r)-4-(4-(1-(4-(2,4-dioxotetrahydropyrimidin-1(2H)-yl)-3,5-difluorophenyl)azetidine-3-carbonyl)piperazin-1-yl)cyclohexyl)-6-(methoxy-d3)-2H-indazol-5-yl)-6-(trifluoromethyl)picolinamide] was tested. Which Dmax (IRAK4 [1]; [6]) did it give?
Its Dmax is 99%.

What about the DC50 (IRAK4 [1]; [7]) of the same compound?
The DC50 was 0.017 µM.

And the Dmax (IRAK4 [1]; [4])?
Its Dmax is 98%.

And the DC50 (IRAK4 [1]; [5])?
Its DC50 is 0.0018 µM.

And the IC50 [3]?
The IC50 was 0.069 µM.

What about the Emax [3] of the same compound?
Its Emax is 79%.
